Reference: patent US20240287575A1, “Role of Human Pegivirus (HPGV) in Parkinson's Disease: Implications for Diagnosis and Treatment” (Northwestern University, priority 2023, published 2024)

System: normal human astrocytes (NHA)
Assay: Gene expression in NHA exposed to inflammatory cytokines (qPCR)
Assay type: cell-based
Settings: for SNCA expression induction: NHA exposed to cytokine for 24 hours, no significant difference between infected and uninfected cells; for LCN2 expression induction: NHA, HPgV-infected and uninfected, exposed to cytokine for 24 hours
Description: As previously stated, iPSC-derived PD astrocytes show increased expression of LCN2 and GFAP following exposure to inflammatory conditions. Inflammation can additionally induce A1 phenotypic skewing in astrocytes.^4 Therefore, the analysis of mtDNA, PD astrocyte-associated genes, and A1/A2 skewing was repeated on NHA that were exposed to the inflammatory cytokine IL1β, IFNγ, or TNFα for 24 hours. mtDNA copy number was reduced in infected cells exposed to cytokines as compared to uninfected cells exposed to cytokines (FIG. 5A; IL1β p=0.0004; IFNγ p=0.001; TNFα p=0.03). […] SNCA expression was induced 10-fold following exposure to IL1β.
Normal human astrocytes (NHA): Cryopreserved NHA were obtained from Lonza. NHA were maintained in Astrocyte Basal Medium with Astrocyte Growth Medium SingleQuot supplements (Lonza). NHA were seeded at 5×10^3 cells/cm and allowed to reach confluency before splitting and seeding into new cell culture vessels, which took approximately 10 days. Medium was changed 24 hours after seeding and every subsequent 48 hours. NHA were discarded at passage 10.
Quantification of PD astrocyte associated gene expression was performed on similarly extracted RNA, following DNAse digestion and isopropanol precipitation. DNAse-treated RNA was resuspended in 50 μL of nuclease-free H2O, quantitated using the Qubit BR ssRNA kit, and diluted to 40 ng/μL. Commercially available TaqMan gene expression assays against GFAP (#Hs00909233; Fisher Scientific), LCN2 (#Hs01008571), SNCA (#Hs00240906), and ITPR2 (#Hs00181916), using FAM as a detector, were each multiplexed with GAPDH (housekeeping gene; #Hs02786624) using VIC as a detector. Each assay was run in duplicate 20 μL reactions, with 5 μL of diluted template RNA, 1 μL of each appropriate 20× assay, and 5 μL of TaqMan Fast Virus 1-step master mix. ΔΔCT was calculated as previously described.

Substance | SNCA expression induction | LCN2 expression induction
IFNγ: inflammatory cytokine | observed to a lesser extent | 
IL1β: inflammatory cytokine | 10 fold | induced LCN2 expression in both infected and uninfected cells
TNFα | observed to a lesser extent | significantly induced expression of LCN2 in infected cells but not uninfected cells
